According to patent EP3319959B1, “HETERO-HALO INHIBITORS OF HISTONE DEACETYLASE” (Alkermes, Inc., priority 2015, dated 2017):

Test system: recombinant human HDACs
Test: HDAC enzymatic assay (LabChip capillary electrophoresis)
Type: biochemical
Settings: 5 nM HDAC enzyme, 1 uM substrate, 5 hours pre-incubation, 17 hours reaction at 25°C; isoform not given
Protocol: All recombinant human HDACs were purchased from BPS Bioscience. The substrate, FAM-TSRHK(AC)KL-CONH, was synthesized at NanoSyn. Final assay reactions contained 100 mM HEPES (pH 7.5), 50 mM KCl, 0.1% BSA, 0.01% Triton X-100, 1% DMSO, 1 uM substrate and 5 nM HDAC enzyme. Enzyme and compounds were pre-incubated at 25°C for 5 hours and reactions were initiated by addition of substrate. 10 uL reactions were incubated for 17 hours at 25°C and terminated by the addition of 40 uL of buffer containing 100 mM HEPES (pH 7.5), 0.1% BSA, 0.01% Triton X-100 and 0.05% SDS. Substrate and product peptides present in each sample were separated electrophoretically using the LabChip 3000 capillary electrophoresis instrument. Change in the relative fluorescence intensity of the substrate and product peaks reflects enzyme activity. Reaction progress was determined as the product to sum ratio (PSR): P/(S+P), where P is the peak height of the product peptide and S is the peak height of the substrate peptide. Reactions were performed in duplicate at 12 concentrations, (3X serial dilutions starting at 30 uM). IC50 values were calculated using a 4 Parameter Logistic Model.

Row | Structure (SMILES) | IC50 [µM]
1 | CN1CCN(Cc2ccc3c(c2)CN(C(=O)Nc2nn(-c4ccccc4)cc2N)C3)CC1 [Compound 353] | 0.5 to 5
2 | CN1CCN(c2ccc3c(c2)CN(C(=O)Nc2nc(-c4ccc(F)cc4)ccc2N)C3)CC1 [Compound 374] | 0.1 to 0.5
3 | Nc1ccc(-n2cccn2)nc1NC(=O)N1CC2CN(CCF)CC2C1 (stereo not drawn) [Compound 167] | > 5
4 | Cn1cc(CN2CCC3(CC2)CCN(C(=O)Nc2nc(-c4cccnc4)ccc2N)C3)cn1 [Compound 215] | > 5
5 | CN1CCC(c2ccc3c(c2)CN(C(=O)Nc2nn(-c4ccccc4)cc2N)C3)CC1 [Compound 383] | 0.1 to 0.5
6 | CN1CC(CC(=O)Nc2nc(-c3ccc(F)cc3)ccc2N)C1 [Compound 376] | > 5
7 | COc1ccc(-c2ccc(N)c(NC(=O)N3Cc4cc(F)cnc4C3)n2)cc1 [Compound 187] | 0.5 to 5
8 | Nc1cn(-c2ccccc2)nc1NC(=O)N1CC2CCCC2C1 (stereo not drawn) [Compound 384] | > 5
9 | Nc1ccc(-c2cccnc2)nc1NC(=O)N1Cc2cc(F)cnc2C1 [Compound 218] | > 5
10 | CC(=O)N1CCC(C(=O)Nc2nc(-c3ccccc3)ccc2N)CC1 [Compound 380] | > 5
11 | Nc1ccc(-c2ccc(F)cc2)nc1NC(=O)N1Cc2ccc(CN3CCC(C(F)(F)F)C3)cc2C1 (stereo not drawn) [Compound 408] | 0.1 to 0.5
12 | Nc1ccc(-c2ccco2)nc1NC(=O)N1CC2CN(CCF)CC2C1 (stereo not drawn) [Compound 174] | > 5
13 | Nc1ccc(-c2ccccc2)nc1NC(=O)C1CCN(Cc2cccnc2)CC1 [Compound 377] | > 5
14 | Nc1ccc(-c2ccc(F)cc2)nc1NC(=O)N1CC2CC(N3CCC3)CC2C1 (stereo not drawn) [Compound 143] | 0.5 to 5
15 | CN1CCN(C2CC3CN(C(=O)Nc4nc(-c5ccc(F)cc5)ccc4N)CC3C2)CC1 (stereo not drawn) [Compound 179] | 0.5 to 5
16 | CN1CCCC2(CCN(C(=O)Nc3nc(-c4cccnc4)ccc3N)C2)C1 (stereo not drawn) [Compound 211] | > 5
17 | Nc1ccc(-c2ccc(F)cc2)nc1NC(=O)N1Cc2cnc(C3CC3)cc2C1 [Compound 255] | 0.1 to 0.5

Row | Structure (SMILES) | IC50 [µM]
18 | Nc1ccc(-c2ccc(F)cc2)nc1NC(=O)[C@H]1[C@@H]2CN(C3CCOCC3)C[C@@H]21 (stereo in doubt) [Compound 264] | > 5
19 | Cc1cnc(C(=O)Nc2nn(-c3ccccc3)cc2N)s1 [Compound 126] | 0.5 to 5
20 | Nc1ccc(-c2ccc(F)cc2)nc1NC(=O)N1Cc2cccc(N3CCCC3)c2C1 [Compound 249] | > 5
21 | Nc1ccc(-c2ccc(F)cc2)nc1NC(=O)N1CC2CCCC2C1 (stereo not drawn) [Compound 385] | 0.5 to 5
22 | Nc1ccc(-c2cccnc2)nc1NC(=O)N1CCC2(CCCNC2)C1 (stereo not drawn) [Compound 171] | > 5
23 | CN1CC(N2C[C@@H]3[C@H](C2)[C@H]3C(=O)Nc2nc(-c3ccc(F)cc3)ccc2N)C1 (stereo in doubt) [Compound 241] | > 5
24 | COC1CCN(Cc2ccc3c(c2)CN(C(=O)Nc2nc(-c4ccc(F)cc4)ccc2N)C3)C1 (stereo not drawn) [Compound 363] | 0.1 to 0.5
25 | Nc1ccc(-c2ccc(F)cc2)nc1NC(=O)N1Cc2ccc(CN3CCC(F)(F)C3)cc2C1 [Compound 386] | 0.1 to 0.5
26 | CN1CC(N2CC3CN(C(=O)Nc4nc(-c5ccc(F)cc5)ccc4N)CC3C2)C1 (stereo not drawn) [Compound 152] | 0.5 to 5
27 | Nc1cn(-c2ccc(F)cc2)nc1NC(=O)N1CCN(C(=O)[C@@H]2C[C@H]2c2ccccc2)CC1 [Compound 125] | 0.5 to 5
28 | Nc1cn(-c2ccccc2)nc1NC(=O)C1CCNCC1 [Compound 357] | > 5
29 | CN(C)Cc1ccc2c(c1)CN(C(=O)Nc1nc(-c3ccco3)ccc1N)C2 [Compound 365] | 0.1 to 0.5
30 | Cn1cc(CN2CCCC3(CCN(C(=O)Nc4nc(-c5ccc(F)cc5)ccc4N)C3)C2)cn1 (stereo not drawn) [Compound 223] | > 5
31 | Nc1cn(-c2ccccc2)nc1NC(=O)N1CCC2(CCOCC2)C1 [Compound 407] | > 5
32 | Nc1ccc(-n2cccn2)nc1NC(=O)N1CC2CC(N3CC(F)C3)CC2C1 (stereo not drawn) [Compound 190] | > 5
33 | Nc1ccc(-c2ccco2)nc1NC(=O)N1Cc2ccncc2C1 [Compound 372] | 0.5 to 5
